Data set [1] concerns RSV A2 VR-1540. The experiment in a line: RSV plaque reduction assay. It counts as cell-based. The settings on record: human respiratory syncytial virus; Strain A2; n = 1; HEp-2 cells. Here is the method:
HEp-2 cells (ATCC, CCL23) were passaged in flasks and seeded in 96-well plates in DMEM containing antibiotics and supplemented with 10% FBS. During inoculation and subsequent incubation, cells were cultured in DMEM containing 3% FBS. 100 plaque forming unit (PFU)/well of RSV (RSV A2 VR-1540) was mixed with ten serial dilutions of compound. Subsequently, 100 μL of the virus/compound mixtures was added to confluent HEp-2 cell monolayers. The cells and virus/compound mixtures were incubated at 35° C. in a humidified 5% CO2 incubator for 1 day.
Cells were washed twice with PBS before adding 50% v/v EtOH/MeOH, and then stored at −20° C. On the day of the staining, fixative was first removed from the plates. Plates were washed 3× with PBS. A pre-titrated amount of the primary antibody was added in 60 μL PBS/2% milk powder, and plates incubated for 1 h at […]. The plates were washed 3× with PBS/0.05% Tween20 before addition of goat anti-mouse horse radish peroxidase in 60 μL PBS/2% milk powder, and incubated for 1 h at rt. Following three wash steps with PBS/0.05% Tween20, 60 μL ready-to-use TrueBlue was added and plates were incubated at rt for 10-15 min before adding MilliQ water. Plates were washed once with water, incubated for 30-60 min and after removal of water, air-dried in the dark.
Plates were scanned and analyzed using the Immunospot S6 UV analyzer, which is equipped with BioSpot analysis software for counting immunostained plaques (virospots). Plaque counts were used to calculate % infection relative to the mean of the spot count (SC) in the virus control wells for RSV. IC50/IC90 values were calculated as 50% or 90% reduction in signal, respectively, by interpolation of inhibition curves fitted with a 4-parameter nonlinear regression with a variable slope in GraphPad 5.0 (Prism).
On the technique in general: Plaques are areas of infected cells; plaque reduction assays count them against a control.

For data set [2], the system named is MDR1. The experiment in a line: in vitro. It counts as in vitro ADME. The settings on record: dog, MDCK-MDR1. Here is the method:
MDR1-MDCK cells obtained from the NIH (Rockville, Md., USA) are used between passage numbers 6-30. Cells are seeded onto Millipore Multiscreen Transwell plates at 3.4×10^5 cells/cm^2. The cells are cultured in DMEM and media is changed on day 3. On day 4 the permeability study is performed. Cell culture and assay incubations are carried out at 37° C. in an atmosphere of 5% CO2 with a relative humidity of 95%. On the day of the assay, the monolayers are prepared by rinsing both basolateral and apical surfaces twice with Hanks Balanced Salt Solution (HBSS) at the desired pH warmed to 37° C. Cells are then incubated with HBSS at the desired pH in both apical and basolateral compartments for 40 min to stabilise physiological parameters.
The dosing solutions are prepared by diluting test compound with assay buffer to give a final test compound concentration of 10 μM (final DMSO concentration of 1% v/v). The fluorescent integrity marker lucifer yellow is also included in the dosing solution. Analytical standards are prepared from test compound DMSO dilutions and transferred to buffer, maintaining a 1% v/v DMSO concentration.
For assessment of A-B permeability, HBSS is removed from the apical compartment and replaced with test compound dosing solution. The apical compartment insert is then placed into a companion plate containing fresh buffer (containing 1% v/v DMSO). For assessment of B-A permeability, FIBSS is removed from the companion plate and replaced with test compound dosing solution. Fresh buffer (containing 1% v/v DMSO) is added to the apical compartment insert, which is then placed into the companion plate. At 60 min the apical compartment inserts and the companion plates are separated and apical and basolateral samples diluted for analysis. Test compound permeability is assessed in duplicate. Compounds of known permeability characteristics are run as controls on each assay plate.
Test and control compounds are quantified by LC-MSMIS cassette analysis using an 8-point calibration with appropriate dilution of the samples. The starting concentration (C0) is determined from the dosing solution and the experimental recovery calculated from C0 and both apical and basolateral compartment concentrations. The integrity of the monolayer throughout the experiment is checked by monitoring lucifer yellow permeation using fluorimetric analysis. Lucifer yellow permeation is high if monolayers have been damaged.

Data set [3] can be described thus: Liver microsomal stability, human. It counts as in vitro ADME. The settings on record: pooled liver microsomes, pH 7.4; human liver microsomes 0.5 mg/mL; 3 μM compound; read-out: Liver Microsoinal Stability t1/2, human. Here is the method:
Pooled liver microsomes are purchased from a reputable commercial supplier and stored at −80° C. prior to use. Microsomes (final protein concentration 0.5 mg/mL), 0.1 M phosphate buffer pH 7.4 and test compound (final substrate concentration 3 μM; final DMSO concentration 0.25%) are pre-incubated at 37° C. prior to the addition of NADPH (final concentration 1 mM) to initiate the reaction. The final incubation volume is 50 uL. A control incubation is included for each compound tested where 0.1 M phosphate buffer pH 7.4 is added instead of NADPH (minus NADPH). Two control compounds are included with each species. All incubations are performed singularly for each test compound. Each compound is incubated for 0, 5, 15, 30 and 45 min. The control (minus NADPH) is incubated for 45 min only. The reactions are stopped by transferring 20 μL of incubate to 60 μL MeOH at the appropriate time points. The termination plates are centrifuged at 2,500 rpm for 20 min at 4° C. to precipitate the protein. Following protein precipitation, the sample supernatants are combined in cassettes of up to 4 compounds, internal standard is added and samples analysed by LC-MS/MS. From a plot of In peak area ratio (compound peak area/internal standard peak area) against time, the gradient of the line is determined. Subsequently, half-life and intrinsic clearance are calculated.
In general terms: Liver microsomes are a subcellular fraction often used to study metabolism.

Turning to `CS(=O)(=O)N1CCC(n2c(CN3C(=O)C4(CC4)c4ccc(F)cc43)nc3cc(Cl)ccc32)CC1` [Compound 33, 1′-{[5-Chloro-1-(1-methanesulfonylpiperidin-4-yl)-1H-1,3-benzodiazol-2-yl]methyl}-6′-fluoro-1′,2′-dihydrospiro[cyclopropane-1,3′-indole]-2′-one], in data set [1], half-maximal inhibition (IC50) was put at 0.49 nM and the 90% effect level (IC90) was put at 4.4 nM. In data set [2], the apical-to-basolateral permeability (Papp A→B) at 60 min, 10 μM was determined as 12.4 ×10⁻⁶ cm/s and the Papp B→A at 60 min, 10 μM amounted to 35.5 ×10⁻⁶ cm/s. The half-life at 3 μM in data set [3] is 8.1 h.
With `CCS(=O)(=O)N1CCC(n2c(CN3C(=O)C4(CC4)c4ccc(F)cc43)nc3cc(Cl)ccc32)CC1` [Compound 35, 1′-({5-Chloro-1-[1-(ethanesulfonyl)piperidin-4-yl]-1H-1,3-benzodiazol-2-yl}methyl)-6′-fluoro-1′,2′-dihydrospiro[cyclopropane-1,3′-indole]-2′-one], in data set [1], the concentration for half-maximal inhibition (IC50) stood at 0.87 nM and the 90% effect concentration (IC90) was 5.2 nM. In addition, in data set [2], the Papp A→B at 60 min, 10 μM amounted to 12.7 ×10⁻⁶ cm/s and the basolateral-to-apical permeability (Papp B→A) at 60 min, 10 μM was 22.8 ×10⁻⁶ cm/s. In addition, the half-life at 3 μM in data set [3] amounted to 0.577 h.

What is called IC50 is the concentration at which inhibition is half-maximal. In general, IC90 refers to the concentration at which the effect reaches the 90% level. Low readings indicate an effect from little substance, high ones a need for much substance. A word on the Papp A→B: it is the apparent permeability from the apical to the basolateral side of a cell layer. In general, Papp B→A refers to the apparent permeability from the basolateral to the apical side of a cell layer.

These data come from patent US11078189B2, “Pharmaceutical compounds” (REVIRAL LIMITED, priority 2017, dated 2021).
